Measured values as given in article PMC9320114 (Molecules, 2022).
Where two headings read alike, the source gives them in different places.

Experiments:
MurA = MurA (Escherichia coli, UniProt P0A749); test: Inhibition of MurA, colorimetric malachite green method; type: biochemical, bacterial; details: Table 1; for MurA RA (%): residual activity at 100 µM; for IC50: read-out: MurA IC50
Protocol: Inhibition of Mur enzymes was monitored with the colorimetric malachite green method, which measured orthophosphate formed during reaction. The mixtures with a final volume of 50 µL contained:
MurA: 50 mM HEPES-NaOH, pH 7.8, 0.005% Triton X-114, 200 µM uridine-diphosphate-N-acetylglucosamine, 100 µM phosphoenolpyruvate, purified MurA, and 50 or 100 µM of each compound tested.
All compounds were soluble in the assay mixtures containing 5% DMSO (v/v). After incubation for 15 min (20 min for DdlB) at 37 °C, the enzyme reaction was terminated by addition of Biomol® reagent (100 µL) and absorbance was measured after 5 min at 650 nm (Synergy™ H4 microplate reader; BioTek Instruments, Inc., BioTek Gen5 Data Analysis Software, version 2.9, Santa Clara, CA, USA). All experiments were performed in duplicate.

[1] = target: human butyrylcholinesterase (hBChE) (Homo sapiens, UniProt P06276); test: biochemical; type: biochemical; details: for IC50: read-out: hBChE IC50; for remaining activity at 10 µM: read-out: hBChE RA (%)
human butyrylcholinesterase (hBChE), sequence (P06276 29-602): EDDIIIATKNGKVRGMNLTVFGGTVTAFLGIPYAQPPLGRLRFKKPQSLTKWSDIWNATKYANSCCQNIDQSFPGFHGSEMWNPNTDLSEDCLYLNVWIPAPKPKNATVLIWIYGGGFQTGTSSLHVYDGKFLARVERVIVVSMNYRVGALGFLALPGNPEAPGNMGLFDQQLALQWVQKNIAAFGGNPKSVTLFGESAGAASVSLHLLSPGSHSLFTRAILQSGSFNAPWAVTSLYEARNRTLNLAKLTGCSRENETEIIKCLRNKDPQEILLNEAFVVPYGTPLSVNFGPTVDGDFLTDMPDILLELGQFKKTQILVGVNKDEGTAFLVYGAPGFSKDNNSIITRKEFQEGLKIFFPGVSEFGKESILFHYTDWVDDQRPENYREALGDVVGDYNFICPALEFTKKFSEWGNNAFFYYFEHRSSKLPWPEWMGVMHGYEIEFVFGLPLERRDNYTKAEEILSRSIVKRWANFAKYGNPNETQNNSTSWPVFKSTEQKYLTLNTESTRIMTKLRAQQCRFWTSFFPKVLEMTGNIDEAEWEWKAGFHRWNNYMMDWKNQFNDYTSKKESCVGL
Protocol: (§1) Enzyme solutions were prepared by diluting the concentrated enzyme stock solutions (4.6 mg/mL in 10 mM MES-NaOH buffer, pH 6.5) in a sodium phosphate-buffered solution (0.1 M, pH 8.0). […] The final organic solvent (DMSO) content was always 1% (v/v). Reactions were initiated by adding the substrate to the enzyme and inhibitor, which were preincubated for 5 min. […] To determine the blank value (b), the enzyme solution was replaced by a phosphate-buffered solution. The initial velocity (v) was calculated from the slope of the linear trend obtained, with each measurement performed in triplicate. The inhibitory potencies were expressed as RA=(vi − b)/(vo − b), where vi is the velocity in the presence of the test compounds and vo is the control velocity in the presence of DMSO. Seven different concentrations of each compound were used for the IC50 measurements. IC50 values were obtained by plotting the residual enzyme activities against the applied inhibitor concentrations, fitting the experimental data to the 4-parameter Hill equation:(1) Y=Bottom+(Top−Bottom)/1+10^((LogIC50−X)×Hill Slope) where X is the logarithm of the inhibitor concentration, and Y is the residual activity. GraphPad Prism 8.2.0 (GraphPad Software, San Diego, CA, USA) was used for the fitting procedure.

[2] = target: T1, murine acetylcholinesterase (mAChE) (Mus musculus, UniProt P21836); test: biochemical; type: biochemical; details: for remaining activity at 10 µM: residual activity at 10 µM, read-out: mAChE RA (%)
T1 sequence (P21836 32-614): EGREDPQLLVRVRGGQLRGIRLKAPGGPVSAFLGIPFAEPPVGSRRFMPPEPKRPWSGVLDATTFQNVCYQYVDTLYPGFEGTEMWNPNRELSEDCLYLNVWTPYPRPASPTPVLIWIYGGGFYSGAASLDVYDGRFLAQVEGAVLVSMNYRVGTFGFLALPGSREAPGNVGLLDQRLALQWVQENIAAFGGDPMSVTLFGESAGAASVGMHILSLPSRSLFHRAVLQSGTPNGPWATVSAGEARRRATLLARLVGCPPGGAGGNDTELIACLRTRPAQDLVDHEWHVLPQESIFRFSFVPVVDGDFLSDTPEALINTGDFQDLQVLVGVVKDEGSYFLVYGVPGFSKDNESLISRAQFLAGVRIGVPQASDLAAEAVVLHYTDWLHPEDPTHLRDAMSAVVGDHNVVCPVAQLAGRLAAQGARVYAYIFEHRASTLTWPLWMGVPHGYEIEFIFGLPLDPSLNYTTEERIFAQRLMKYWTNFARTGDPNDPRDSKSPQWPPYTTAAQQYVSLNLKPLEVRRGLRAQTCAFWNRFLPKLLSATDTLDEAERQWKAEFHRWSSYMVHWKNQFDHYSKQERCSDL
Protocol: as §1

hMAO-B = target: T2, hMAO-B (Homo sapiens, UniProt P27338); test: biochemical; details: residual activity at 10 µM; Table 3
T2 construct: purchased Sigma Aldrich; host or cells: BTI-TN-5B1-4 baculovirus-infected insect cells
T2 sequence (P27338 1-520): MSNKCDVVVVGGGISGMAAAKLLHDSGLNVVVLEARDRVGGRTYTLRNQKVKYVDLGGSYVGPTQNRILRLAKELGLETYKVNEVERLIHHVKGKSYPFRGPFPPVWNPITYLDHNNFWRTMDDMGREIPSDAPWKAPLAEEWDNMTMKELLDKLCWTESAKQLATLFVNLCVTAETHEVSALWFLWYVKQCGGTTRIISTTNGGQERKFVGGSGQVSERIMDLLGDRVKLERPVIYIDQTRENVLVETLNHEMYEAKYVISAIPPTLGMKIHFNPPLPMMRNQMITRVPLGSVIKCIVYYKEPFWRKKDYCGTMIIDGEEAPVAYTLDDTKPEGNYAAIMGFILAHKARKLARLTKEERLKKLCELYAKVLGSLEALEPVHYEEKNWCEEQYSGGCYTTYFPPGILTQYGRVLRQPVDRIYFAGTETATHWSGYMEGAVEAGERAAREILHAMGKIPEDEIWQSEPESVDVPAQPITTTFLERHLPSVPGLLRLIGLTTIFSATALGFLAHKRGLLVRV
Text: The effects of the compounds on hMAO-A and hMAO-B were investigated using a fluorimetric assay, following a method previously described in the literature. Recombinant human microsomal hMAO enzymes expressed in BTI-TN-5B1-4 baculovirus-infected insect cells, horseradish peroxidase (HRP, type II, lyophilized powder), and p-tyramine hydrochloride were purchased from Sigma Aldrich. 10-Acetyl-3,7-dihydroxyphenoxazine (Amplex Red reagent) was synthesized as described in the literature.
After preincubation, the reaction was started by adding final concentrations of 200 µM Amplex Red reagent, 2 U/mL HRP, and 1 mM p-tyramine hydrochloride. Resorufin production was quantified based on the fluorescence produced (λex = 530 nm; λem = 590 nm) at 37 °C over a 20 min period. For the control experiments, DMSO was used instead of appropriate dilutions of the compounds in DMSO. For the determination of blank (b), the enzyme solution was replaced by a phosphate-buffered solution. Initial velocities were calculated from the obtained trend, with each measurement performed in duplicate. Specific fluorescence emission to determine the final results was calculated after subtracting the blank activity (b). Inhibitory potencies were expressed as RAs, and IC50 values were calculated as described in the section “Inhibition of hBChE and mAChE” above.

[3] = residual activity at 10 µM, Table 4

MurA, sequence (P0A749 whole entry): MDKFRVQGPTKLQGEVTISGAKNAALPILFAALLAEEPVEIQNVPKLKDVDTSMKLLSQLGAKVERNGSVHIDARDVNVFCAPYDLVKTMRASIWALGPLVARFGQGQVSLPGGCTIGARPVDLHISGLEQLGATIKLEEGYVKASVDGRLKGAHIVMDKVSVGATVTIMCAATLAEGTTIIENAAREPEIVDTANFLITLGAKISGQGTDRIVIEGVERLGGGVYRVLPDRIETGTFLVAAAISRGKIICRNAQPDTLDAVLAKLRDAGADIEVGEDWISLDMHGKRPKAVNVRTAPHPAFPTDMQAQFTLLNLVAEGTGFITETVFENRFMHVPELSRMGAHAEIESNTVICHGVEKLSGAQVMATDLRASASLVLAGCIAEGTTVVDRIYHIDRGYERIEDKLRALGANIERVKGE

`CCCCc1ccc(C#Cc2ccc(CN(C(=O)CC(C)(C)C)c3ccc(F)c(C(=O)O)c3)cc2)cc1` [Compound 1] was tested, and the “MurA IC50 (µM)” value (MurA; IC50 ± SEM) was “No clear dose-dependency”, the “MurA RA (%)” value (MurA) was 0% and the “hBChE RA (%)” value [1] was 100%. For the same compound, the IC50 [2] was 1200 ± 50 nM and the “mAChE RA (%)” value [2] was 2%.

With `CC(C)(C)c1ccc(C#Cc2ccc(CN(CC3CC3)c3ccc(O)c(C(=O)O)c3)cc2)cc1` [Compound 2] the “MurA RA (%)” value (MurA) was 64%, the “hBChE RA (%)” value [1] was 100% and the “mAChE RA (%)” value [2] was 99%.

In the case of `CC(C)(C)CCN(Cc1ccc(C#Cc2ccc(F)cc2)cc1)C(=O)c1ccc(C(=O)O)cc1` [Compound 3], the “MurA RA (%)” value (MurA) is reported as 58%, the “hBChE RA (%)” value [1] is reported as 100% and the “mAChE RA (%)” value [2] is reported as 100%.

With `Cc1ccc(C#Cc2ccc(CN(CCC(C)(C)C)c3ccc(O)c(C(=O)O)c3)cc2)cc1` [Compound 4] the IC50 (MurA; IC50 ± SEM) was 102000 ± 15000 nM, the “MurA RA (%)” value (MurA) was 14% and the “hBChE RA (%)” value [1] was 100%. The “mAChE RA (%)” value [2] was 100%.

In the case of `CCCCc1ccc(C#Cc2ccc(CN(CC3CC3)c3ccc(O)c(C(=O)O)c3)cc2)cc1` [Compound 5], the IC50 (MurA; IC50 ± SEM) is reported as 7000 ± 3000 nM, the “MurA RA (%)” value (MurA) is reported as 0% and the “hBChE RA (%)” value [1] is reported as 16%. For the same compound, the IC50 [1] was 2400 ± 200 nM, the IC50 [2] was 1100 ± 100 nM and the “mAChE RA (%)” value [2] was 2%.

For `CC(C)(C)CCN(Cc1ccc(C#Cc2ccc(F)cc2)cc1)C(=O)c1ccc(O)c(C(=O)O)c1` [Compound 6], the IC50 (MurA; IC50 ± SEM) was 27000 ± 7000 nM, the “MurA RA (%)” value (MurA) was 0% and the “hBChE RA (%)” value [1] was 95%. For the same compound, the IC50 [2] was 4800 ± 1300 nM and the “mAChE RA (%)” value [2] was 13%.

`CCCCCCN(Cc1ccc(C#Cc2ccc(CCCC)cc2)cc1)c1ccc(F)c(C(=O)OC)c1` [Compound 7] was tested, and the “MurA RA (%)” value (MurA) was 100%, the “hBChE RA (%)” value [1] was 45% and the IC50 [1] was ~19700 nM. The IC50 [2] was 682 ± 86 nM and the “mAChE RA (%)” value [2] was 19%.

In the case of `CCCCCCN(Cc1ccc(C#Cc2ccc(C(C)(C)C)cc2)cc1)c1ccc(F)c(C(=O)O)c1` [Compound 8], the IC50 (MurA; IC50 ± SEM) is reported as 14000 ± 5000 nM, the “MurA RA (%)” value (MurA) is reported as 0% and the “hBChE RA (%)” value [1] is reported as 71%. For the same compound, the IC50 [2] was 368 ± 52 nM and the “mAChE RA (%)” value [2] was 22%.

For `COC(=O)c1cc(N(Cc2ccc(C#Cc3ccc(C(C)(C)C)cc3)cc2)CC2CC2)ccc1F` [Compound 9], the IC50 (MurA; IC50 ± SEM) was 91000 ± 13000 nM, the “MurA RA (%)” value (MurA) was 10% and the “hBChE RA (%)” value [1] was 80%. The IC50 [2] was 1800 ± 450 nM.

Work on `C1=C(c2cccc3ccccc23)CCN(CCCCc2c[nH]c3ccccc23)C1` [Compound 30] yielded an IC50 ([1]; Table 4, IC50 ± SEM) of 400 ± 57 nM, a remaining activity at 10 µM [1, 3] of 6% and a remaining activity at 10 µM ([2]; Table 4) of 76%.

For `CC(C)c1ccc2[nH]cc(CCCCN3CC=C(c4ccccc4)CC3)c2c1` [Compound 31], the IC50 ([1]; Table 4, IC50 ± SEM) was 59.9 ± 5.5 nM, the remaining activity at 10 µM [1, 3] was 0% and the IC50 ([2]; Table 4, IC50 ± SEM) was 14000 ± 4000 nM. The remaining activity at 10 µM ([2]; Table 4) was 44%.

For `O=C(O)c1cccc2[nH]cc(CCCCN3CC=C(c4ccccc4)CC3)c12` [Compound 32], the IC50 ([1]; Table 4, IC50 ± SEM) was 14500 ± 2200 nM, the remaining activity at 10 µM [1, 3] was 49% and the remaining activity at 10 µM ([2]; Table 4) was 71%.

`Oc1ccc2c(CCCCN3CC=C(c4ccccc4)CC3)c[nH]c2c1` [Compound 33] gave an IC50 ([1]; Table 4, IC50 ± SEM) of 267 ± 1 nM, a remaining activity at 10 µM [1, 3] of 3% and a remaining activity at 10 µM ([2]; Table 4) of 61%.

`OCC1=C(c2ccc(F)cc2)CCN(CCCCc2c[nH]c3ccccc23)C1` [Compound 34] was tested, and the IC50 ([1]; Table 4, IC50 ± SEM) was 493 ± 88 nM, the remaining activity at 10 µM [1, 3] was 7% and the IC50 ([2]; Table 4, IC50 ± SEM) was 7000 ± 1000 nM. It also gave a remaining activity at 10 µM ([2]; Table 4) of 31%.

`N#Cc1ccc2[nH]cc(CCCCN3CC=C(c4ccc5c(c4)OCC5)CC3)c2c1` [Compound 35] was tested, and the IC50 ([1]; Table 4, IC50 ± SEM) was 2900 ± 100 nM, the remaining activity at 10 µM [1, 3] was 31% and the remaining activity at 10 µM ([2]; Table 4) was 59%.

In the case of `O=C(O)c1ccc2[nH]cc(CCCCN3CCc4c(c(=O)oc5ccccc45)C3)c2c1` [Compound 36], the remaining activity at 10 µM [1, 3] is reported as 97% and the remaining activity at 10 µM ([2]; Table 4) is reported as 78%.

With `COc1ccc2[nH]cc(CCCCN3CCc4c([nH]c5ccc(OC)cc45)C3)c2c1` [Compound 37] the IC50 ([1]; Table 4, IC50 ± SEM) was 2300 ± 100 nM, the remaining activity at 10 µM [1, 3] was 23% and the remaining activity at 10 µM ([2]; Table 4) was 88%.

`COC(=O)CNC(=O)c1ccc2[nH]cc(CCCCN3CC=C(c4ccccc4)CC3)c2c1` [Compound 38] was tested, and the IC50 ([1]; Table 4, IC50 ± SEM) was 319 ± 51 nM, the remaining activity at 10 µM [1, 3] was 4% and the remaining activity at 10 µM ([2]; Table 4) was 100%.

In the case of `Fc1ccc2[nH]cc(CCCCN3CC=C(c4ccccc4)CC3)c2c1` [Compound 39], the IC50 ([1]; Table 4, IC50 ± SEM) is reported as 70 ± 5 nM, the remaining activity at 10 µM [1, 3] is reported as 0% and the IC50 ([2]; Table 4, IC50 ± SEM) is reported as 15000 ± 5000 nM. For the same compound, the remaining activity at 10 µM ([2]; Table 4) was 47%.

With `C[C@@H]1O[C@@H]1P(=O)(O)O` [Fosfomycin, reference compound] the IC50 (MurA; IC50 ± SEM) was 240 ± 20 nM and the “MurA RA (%)” value (MurA) was 0%.

In the case of `C[C@H](NCc1ccc(OCc2cccc(F)c2)cc1)C(N)=O` [Safinamide, reference compound], the “hMAO-B RA [%]” value (hMAO-B) is reported as 0%.

For `Nc1c2c(nc3ccccc13)CCCC2` [Tacrine, reference compound], the “hBChE RA (%)” value ([1]; residual activity at 10 µM, Table 1) was 0%.
